The assay relates to renal progenitor cells. The assay is described as follows: In situ hybridization for lhx1a expression in 10-somite embryos (renal progenitor cell expansion). The assay is classed as in vivo. As to conditions: for responders at 0.2 µM / responders at 0.4 µM / responders at 0.8 µM / responders at 1.5 µM / responders at 3 µM / EC50: Danio rerio; for responders at 0.2 µM: 200 nM, read-out: Expansion of Cells (including repeats* and recounts**) 200 nM; for responders at 0.4 µM: 400 nM, read-out: Expansion of Cells (including repeats* and recounts**) 400 nM; for responders at 0.8 µM: 800 nM, read-out: Expansion of Cells (including repeats* and recounts**) 800 nM; for responders at 1.5 µM: read-out: Expansion of Cells (including repeats* and recounts**) 1.5 μM; for responders at 3 µM: read-out: Expansion of Cells (including repeats* and recounts**) 3 μM; for EC50: first pass EC50 from percent expansion (Excel trendline), average where several experiments. The method, then: PTBA was synthesized as described below. Hydroxyurea and aphidicolin were obtained from Sigma-Aldrich.
In situ hybridization and immunocytochemistry: In situ hybridization was performed as previously described with some modifications.142 Hybridization temperature was 65° C. Embryos were blocked in 2% blocking reagent (Roche) with 5% sheep serum in MAB (100 mM maleic acid and 150 mM NaCl [pH 7.5]). Whole-mount immunocytochemistry with 1:25 mouse anti-α6F antibody (Developmental Studies Hybridoma Bank) and 1:100 Cy3 secondary antibody (Jackson ImmunoResearch) was performed as described previously.108 Embryos were embedded in JB-4 for sectioning per the manufacturer's instructions (Polysciences), sectioned at 5 μm, and mounted with Cytoseal 60 (Richard-Allan Scientific).
The remaining PTBA analogs were synthesized.
In situ hybridization for lhx1a was performed as described above. […] Compounds were classified as effective, partially-effective or ineffective based on comparison to the effects of PTBA at a given concentration.
Testing of the compounds is on-going, but for those tested, Table 6 provides first pass EC50s based upon colormetric in situ hybridizations for the Lhx1a mRNA expression levels. After the procedure is run, in situ hybridization is done for the lhx1 mRNA expression and the number of embryos that show an expanded kidney field is manually counted to establish the percent of embryos showing expansion. Then the EC50 is determined by plotting the percent expansion in Excel, graphing the results and using the trendline function to determine the 50 percent point.

The mark [1] stands for this setting: percent of embryos with expanded kidney field.
The mark [2] stands for this setting: percent of embryos with expanded kidney field, 1.5 μM.
[3] abbreviates: percent of embryos with expanded kidney field, 3 μM.

By EC50 is commonly meant the concentration needed to bring the measured effect to its halfway point. Low values mean higher potency in that assay, high ones lower potency in that assay.

`COC(=O)CCCCCSc1ccc(OC)cc1` [UPHD-00090, methyl 6-[(4-methoxy-phenyl)sulfanyl]hexanoate] displayed an EC50 of 2340 nM. For the same molecule, under setting [1], the responders at 0.2 µM was determined as 0%, the responders at 0.4 µM came out at 12% and the responders at 0.8 µM came to 25%. In addition, the responders at 1.5 µM under setting [2] is 26%. Besides, the responders at 3 µM under setting [3] was found to be 65%.
With `COC(=O)CCCCCS(=O)(=O)c1ccc2ccccc2c1` [UPHD-00063, methyl 6-(naphthalen-2-ylsulfonyl)hexanoate], the EC50 was above 3000 nM. Under setting [1], the responders at 0.2 µM amounted to 10%, the responders at 0.4 µM came out at 5% and the responders at 0.8 µM came to 0%. For the same molecule, the responders at 1.5 µM under setting [2] was 0%. The responders at 3 µM under setting [3] amounted to 6%.
On to `COC(=O)CCCCCSc1ccc2ccccc2c1` [UPHD-00057, methyl 6-(naphthalen-2-ylsulfanyl)hexanoate], for which the EC50 is above 3000 nM. In addition, under setting [1], the responders at 0.2 µM is 19%, the responders at 0.4 µM turned out to be 19% and the responders at 0.8 µM was 11%. The responders at 1.5 µM under setting [2] amounted to 18%. Further, under setting [3], the responders at 3 µM was determined as 29%.
Regarding `COC(=O)CCCCCSc1nc2ccccc2s1` [UPHD-00062], the EC50 was above 3000 nM. Also, under setting [1], the responders at 0.2 µM turned out to be 11%, the responders at 0.4 µM is 12% and the responders at 0.8 µM amounted to 0%. The responders at 1.5 µM under setting [2] came out at 0%. The responders at 3 µM under setting [3] was 0%.
The molecule `O=C(CCCCCSc1ccc(F)cc1)NO` [UPHD-00051, 6-[(4-fluoro-phenyl)sulfanyl]-N-hydroxyhexanamide] gave an EC50 of 1900 nM. Also, the responders at 3 µM under setting [3] turned out to be 86.7%.
For `Nc1ccccc1NC(=O)CCCCSc1ccccc1` [UPHD-00038, N-(2-aminophenyl)-5-(phenylsulfanyl)pentanamide], the responders at 0.8 µM under setting [1] stood at 58%. Further, the responders at 1.5 µM under setting [2] was found to be 81%. In addition, under setting [3], the responders at 3 µM came out at 85%.
`O=C(NO)c1ccc(CCSc2ccccc2)cc1` [UPHD-00061, N-hydroxy-4-[2-(phenyl-sulfanyl)ethyl]benzamide] showed an EC50 above 3000 nM. Under setting [1], the responders at 0.2 µM came to 5.5%, the responders at 0.4 µM is 0% and the responders at 0.8 µM was found to be 0%. Also, under setting [2], the responders at 1.5 µM was 6%. For the same molecule, the responders at 3 µM under setting [3] stood at 37%.
On to `O=C(NO)c1ccc(CSc2ccccc2)cc1` [UPHD-00052, N-hydroxy-4-[(phenyl-sulfanyl)methyl]benzamide], for which the EC50 was above 3000 nM. Moreover, under setting [1], the responders at 0.2 µM worked out at 0%, the responders at 0.4 µM turned out to be 0% and the responders at 0.8 µM worked out at 0%. The responders at 1.5 µM under setting [2] was 10%.
Molecule `Nc1ccccc1NC(=O)CCCCCCSc1ccccc1` [UPHD-00044, N-(2-aminophenyl)-7-(phenylsulfanyl)heptanamide] had an EC50 of 1490 nM.
The molecule `O=C(CCCCCS(=O)(=O)c1ccc2ccccc2c1)NO` [UPHD-00069, N-hydroxy-6-(naphthalene-2-sulfonyl)hexanamide] came in with an EC50 above 3000 nM. For the same molecule, under setting [1], the responders at 0.2 µM stood at 0%, the responders at 0.4 µM is 0% and the responders at 0.8 µM came out at 0%. Also, under setting [2], the responders at 1.5 µM is 0%. The responders at 3 µM under setting [3] is 0%.
Take `Nc1ccccc1NC(=O)CCCCCSc1nc2ccccc2s1` [UPHD-00071, N-(2-aminophenyl)-6-(1,3-benzothiazol-2-ylsulfanyl)hexanamide]: under setting [1], the responders at 0.2 µM came out at 12%, the responders at 0.4 µM turned out to be 42% and the responders at 0.8 µM came to 74%. Further, under setting [2], the responders at 1.5 µM turned out to be 26%. Moreover, the responders at 3 µM under setting [3] came out at 70%.
With `COC(=O)CCCCSc1ccc(F)cc1` [UPHD-00032, methyl 5-[(4-fluoro-phenyl)sulfanyl]pentanoate], the EC50 is above 3000 nM. In addition, under setting [1], the responders at 0.8 µM was 0%. For the same molecule, under setting [2], the responders at 1.5 µM was determined as 0%. Further, the responders at 3 µM under setting [3] is 0%.
For the molecule `O=C(CCCCSc1ccc(F)cc1)NO` [UPHD-00034, 5-[(4-fluoro-phenyl)sulfanyl]-N-hydroxypentanamide], under setting [1], the responders at 0.4 µM came out at 10%.
`Nc1ccccc1NC(=O)CCCCCCSc1ccc(F)cc1` [UPHD-00043, N-(2-aminophenyl)-7-[(4-fluoro-phenyl)sulfanyl]heptanamide] showed an EC50 of 3000 nM. In addition, under setting [1], the responders at 0.2 µM was determined as 0% and the responders at 0.4 µM stood at 15%. Moreover, the responders at 3 µM under setting [3] is 57%.
`O=C(CCCCCSc1ccc(F)cc1)Nc1ccccc1O` [UPHD-00077, 6-[(4-fluoro-phenyl)sulfanyl]-N-(2-hydroxyphenyl)hexanamide] registered an EC50 of 230 nM. Moreover, under setting [1], the responders at 0.2 µM came out at 40%, the responders at 0.4 µM came to 100% and the responders at 0.8 µM is 100%. Moreover, under setting [2], the “Expansion of Cells (including repeats* and recounts**) 1.5 μM” value is “ND (All Dead)”. For the same molecule, the “Expansion of Cells (including repeats* and recounts**) 3 μM” value under setting [3] is recorded as “ND (All Dead)”.
`COC(=O)CCCCCSc1ccccc1` [UPHD-00047, methyl 6-(phenyl-sulfanyl)hexanoate] came in with an EC50 of 400 nM. Also, under setting [1], the responders at 0.8 µM amounted to 100%. Besides, under setting [2], the responders at 1.5 µM stood at 100%. In addition, the responders at 3 µM under setting [3] was determined as 100%.
As for `NC(CCSc1ccccc1)C(=O)O` (centres unmarked) [Compound 2-amino-PTBA, 2-amino-PTBA, reference compound], for the setting “3 μM from 2 hpf, 10-somite embryos”, the “lhx1a expansion, percent of treated embryos” value is “no expansion”.
As for `Nc1ccccc1NC(=O)CCCCCSc1ccccn1` [UPHD-00073, N-(2-aminophenyl)-6-(pyridin-2-ylsulfanyl)hexanamide], the EC50 was above 3000 nM. Under setting [1], the responders at 0.2 µM stood at 5%, the responders at 0.4 µM was 10% and the responders at 0.8 µM is 0%. Besides, the responders at 1.5 µM under setting [2] stood at 20%. In addition, the responders at 3 µM under setting [3] turned out to be 30%.
On to `Nc1ccccc1NC(=O)CCCSc1ccccc1` [UPHD-00036, N-(2-aminophenyl)-4-(phenylsulfanyl)butanamide], for which, under setting [1], the responders at 0.8 µM turned out to be 45%. The responders at 1.5 µM under setting [2] is 85%. Also, under setting [3], the responders at 3 µM came to 100%.
Regarding `O=C(CCCCCSc1ccc2ccccc2c1)NO` [UPHD-00059, N-hydroxy-6-(naphthalen-2-ylsulfanyl)hexanamide], the EC50 is above 3000 nM. Besides, under setting [1], the responders at 0.2 µM came out at 0%, the responders at 0.4 µM was 5% and the responders at 0.8 µM was determined as 12%. Moreover, under setting [2], the responders at 1.5 µM worked out at 16%. Moreover, the responders at 3 µM under setting [3] was 33%.
`COC(=O)c1ccc(CSc2ccccc2)cc1` [UPHD-00045, methyl 4[(phenyl-sulfanyl)methyl]benzoate] returned a concentration giving a half-maximal response (EC50) above 3000 nM. Further, the responders at 0.8 µM under setting [1] was found to be 17%. Further, the responders at 1.5 µM under setting [2] came to 0%. For the same molecule, the responders at 3 µM under setting [3] turned out to be 17%.
Take `Nc1ccccc1NC(=O)CCCCCSc1ncccn1` [UPHD-00072, N-(2-aminophenyl)-6-(pyrimidin-2-ylsulfanyl)hexanamide]: the EC50 was above 3000 nM. In addition, under setting [1], the responders at 0.2 µM came to 0%, the responders at 0.4 µM came to 0% and the responders at 0.8 µM stood at 5%. Also, the responders at 1.5 µM under setting [2] was determined as 5%. The responders at 3 µM under setting [3] was found to be 5%.
The molecule `Nc1ccccc1NC(=O)CCCCSc1ccc(F)cc1` [UPHD-00037, N-(2-aminophenyl)-5-[(4-fluoro-phenyl)sulfanyl]pentanamide] returned an EC50 of 2590 nM. Besides, the responders at 0.2 µM under setting [1] was 10%.
For the molecule `COC(=O)CCCCSc1ccccc1` [UPHD-00033, methyl 5-(phenylsulfanyl)pentanoate], the EC50 is above 3000 nM. In addition, under setting [1], the responders at 0.8 µM came to 0%. In addition, the responders at 1.5 µM under setting [2] turned out to be 5%. The responders at 3 µM under setting [3] is 11%.
The molecule `O=C(CCCCCSc1nc2ccccc2s1)NO` [UPHD-00070, 6-(1,3-benzothiazol-2-ylsulfanyl)-N-hydroxyhexanamide] gave an EC50 above 3000 nM. Further, under setting [1], the responders at 0.2 µM was determined as 0%, the responders at 0.4 µM is 0% and the responders at 0.8 µM stood at 0%. Besides, the responders at 1.5 µM under setting [2] was determined as 0%. Moreover, the responders at 3 µM under setting [3] is 0%.
`O=C(CCCCCSc1ccccc1)NO` [UPHD-00050, N-hydroxy-6-(phenyl-sulfanyl)hexanamide] displayed an EC50 above 3000 nM. Besides, the responders at 0.8 µM under setting [1] came to 0%. Also, the responders at 1.5 µM under setting [2] amounted to 0%. In addition, the responders at 3 µM under setting [3] was 0%.
Take `COC(=O)CCCCCSc1ncccn1` [UPHD-00058, methyl 6-(pyrimidin-2-ylsulfanyl)hexanoate]: the EC50 was above 3000 nM. Besides, under setting [1], the responders at 0.2 µM was determined as 17%, the responders at 0.4 µM worked out at 33% and the responders at 0.8 µM is 20%. Also, the responders at 1.5 µM under setting [2] was 28%. In addition, under setting [3], the responders at 3 µM amounted to 6%.

Values taken from US10160705B2, “Class of HDAC inhibitors expands the renal progenitor cells population and improves the rate of recovery from acute kidney injury” (University of Pittsburgh—Of the Commonwealth System of …, priority 2011, dated 2018).
